Reference: US9346761B2, “Arginine methyltransferase inhibitors and uses thereof” (Epizyme, Inc., priority 2013, dated 2016)
Read-outs that look alike come from different tables or passages of the source.

Assays:
Full-length human PRMT3 = molecular target: T1, Full-length human PRMT3 (Homo sapiens, UniProt O60678); experiment: PRMT3 biochemical assay (3H-SAM Flashplate, peptide substrate)
T1 construct: GST-tagged PRMT3; made in house; host or cells: E. coli BL21(DE3) Gold (pGEX-KG)
Source text: General Materials. S-adenosylmethionine (SAM), S-adenosylhomocysteine (SAH), bicine, Tween20, dimethylsulfoxide (DMSO), bovine skin gelatin (BSG),), isopropyl-β-D-thiogalactopyranoside (IPTG), and Tris(2-carboxyethyl)phosphine hydrochloride solution (TCEP) were purchased from Sigma-Aldrich at the highest level of purity possible. ^3H-SAM was purchase from American Radiolabeled Chemicals with a specific activity of 80 Ci/mmol. 384-well streptavidin Flashplates were purchased from PerkinElmer.
Substrates. Peptide containing the classic RMT substrate motif was synthesized with an N-terminal linker-affinity tag motif and a C-terminal amide cap by 21st Century Biochemicals. The peptide was purified by high-performance liquid chromatography (HPLC) to greater than 95% purity and confirmed by liquid chromatography mass spectrometry (LC-MS). The sequence was Biot-Ahx-[…]-amide (SEQ ID NO.:11).
Molecular Biology: : Full-length human PRMT3 (NM_005788.3) isoform 1 transcript clone was amplified from an HEK 293 cDNA library and subcloned into pGEX-KG (GE Life Sciences). The resulting construct encodes an N-terminal GST tag and a thrombin cleavage sequence ([…] […] […] […]) (SEQ ID NO.:12) fused directly to Cys 2 of PRMT3.
Protein Expression. E. coli (BL21(DE3) Gold, Stratagene) made competent by the CaCl2 method were transformed with the PRMT3 construct and ampicillin selection. Protein over-expression was accomplished by growing the PRMT3 expressing E. coli clone and inducing expression with 0.3 mM IPTG at 16° C. The culture was grown for 12 hours, harvested by centrifugation, and stored at −80° C. for purification.
Protein Purification. […] GST-tagged PRMT3 eluted with 25-400 mM phosphate in buffer C. Protein was concentrated and buffer was exchanged to 20 mM Tris, 150 mM NaCl, 5% glycerol, 5 mM β-mercaptoethanol, pH7.8 by ultrafiltration. The purity of recovered protein was 70%.
General Procedure for PRMT3 Enzyme Assays on Peptide Substrates. The assays were all performed in a buffer consisting of 20 mM Bicine (pH=7.6), 1 mM TCEP, 0.005% BSG, and 0.002% Tween 20, prepared on the day of use. Compounds in 100% DMSO (1 ul) were spotted into a polypropylene 384-well V-bottom plates (Greiner) using a Platemate Plus outfitted with a 384-channel head (Thermo Scientific). DMSO (1 ul) was added to Columns 11, 12, 23, 24, rows A-H for the maximum signal control and 1 ul of SAH, a known product and inhibitor of PRMT3, was added to columns 11, 12, 23, 24, rows I-P for the minimum signal control. A cocktail (40 ul) containing the PRMT3 enzyme was added by Multidrop Combi (Thermo-Fisher). The compounds were allowed to incubate with PRMT3 for 30 min at room temperature, then a cocktail (10 ul) containing SAM and peptide was added to initiate the reaction (final volume=51 ul). The final concentrations of the components were as follows: PRMT3 was 0.5 nM, ^3H-SAM was 100 nM, non-radiolabeled SAM was 1.8 uM, peptide was 330 nM, SAH in the minimum signal control wells was 1 mM, and the DMSO concentration was 2%. The assays were stopped by the addition of potassium chloride (10 ul) to a final concentration of 100 mM. 50 ul of the reaction in the 384-well polypropylene plate was then transferred to a 384-well Flashplate and the biotinylated peptides were allowed to bind to the streptavidin surface for at least 1 hour before being washed once with 0.1% Tween20 in a Biotek ELx405 plate washer. The plates were then read in a PerkinElmer TopCount plate reader to measure the quantity of ^3H-labeled peptide bound to the Flashplate surface, measured as disintegrations per minute (dpm) or alternatively, referred to as counts per minute (cpm).
Where dpm=disintegrations per minute, cmpd=signal in assay well, and min and max are the respective minimum and maximum signal controls.
Where top and bottom are the normally allowed to float, but may be fixed at 100 or 0 respectively in a 3-parameter fit. […]

[1] = system: mono-methyl arginine in RKO cells; experiment: RKO methylation assay, In Cell Western for mono-methyl arginine and DNA content; type: cell-based; settings: Homo sapiens
[2] = In Cell Western, RKO cells, 72 hours, percent activation of mono-methyl arginine signal, read-out: EC30

T1 sequence (O60678 with tags, fused parts or gaps): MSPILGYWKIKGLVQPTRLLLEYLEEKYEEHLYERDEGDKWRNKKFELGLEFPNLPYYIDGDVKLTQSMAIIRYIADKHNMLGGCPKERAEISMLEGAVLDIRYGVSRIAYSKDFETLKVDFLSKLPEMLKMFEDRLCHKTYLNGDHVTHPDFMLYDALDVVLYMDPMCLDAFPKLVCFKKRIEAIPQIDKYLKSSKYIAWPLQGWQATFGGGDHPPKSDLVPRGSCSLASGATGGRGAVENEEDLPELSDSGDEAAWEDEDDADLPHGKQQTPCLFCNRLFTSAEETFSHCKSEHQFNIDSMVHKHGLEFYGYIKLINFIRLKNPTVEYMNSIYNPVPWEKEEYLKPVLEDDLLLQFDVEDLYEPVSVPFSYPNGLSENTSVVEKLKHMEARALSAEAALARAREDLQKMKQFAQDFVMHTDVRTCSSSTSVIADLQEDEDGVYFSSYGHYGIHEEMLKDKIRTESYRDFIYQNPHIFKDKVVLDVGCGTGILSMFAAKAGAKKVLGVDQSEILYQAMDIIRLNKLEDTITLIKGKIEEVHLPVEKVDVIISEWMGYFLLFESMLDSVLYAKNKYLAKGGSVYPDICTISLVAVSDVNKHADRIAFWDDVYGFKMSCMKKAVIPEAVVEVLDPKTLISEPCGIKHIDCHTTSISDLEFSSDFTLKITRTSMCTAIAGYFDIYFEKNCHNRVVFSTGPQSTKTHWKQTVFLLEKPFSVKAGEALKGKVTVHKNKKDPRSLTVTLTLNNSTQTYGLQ

| SMILES | IC50 (Full-length human PRMT3) | EC30 [1, 2] | EC30 ([1]; RKO, 72 h) |
| --- | --- | --- | --- |
| COCCn1cc(CN(C)CCN)c(-c2ccc(F)cc2)n1 [Compound 5] | > 10 µM | > 12 µM |  |
| COCCn1ncc(CN(C)CCN)c1-c1ccc(F)cc1 [Compound 6] | > 10 µM | > 12 µM |  |
| CCn1ncc(CN(C)CCNC)c1-c1ccc(F)cc1 [Compound 7] | > 10 µM | 3.01 to 12 µM |  |
| CCn1cc(CN(C)CCNC)c(-c2ccc(F)cc2)n1 [Compound 8] | > 10 µM | > 12 µM |  |
| CN(CCN)Cc1c[nH]nc1-c1ccc(Cl)cc1 [Compound 95] | 1.01 to 3 µM | < 3 µM |  |
| CN(CCN)Cc1c[nH]nc1-c1ccc(OCC(F)(F)F)cc1 [Compound 96] | 3.01 to 10 µM | < 3 µM |  |
| CC(C)Oc1ccc(-c2n[nH]cc2CN(C)CCN)cc1F [Compound 97] | 3.01 to 10 µM |  | < 3 µM |
| CN(CCN)Cc1c[nH]nc1-c1ccc(C2CCOCC2)cc1 [Compound 98] | 0.101 to 1 µM | < 3 µM |  |
| CN(CCN)Cc1c[nH]nc1-c1ccc(F)cc1F [Compound 99] | > 10 µM | 3.01 to 12 µM |  |
| CN(CCN)Cc1n[nH]cc1-c1ccc(C#N)cc1 [Compound 100] | 3.01 to 10 µM | < 3 µM |  |
| CC(C)c1ccc(-c2c[nH]nc2CN(C)CCN)cc1 [Compound 101] | > 10 µM |  | 3.01 to 12 µM |
| CN(CCN)Cc1n[nH]cc1-c1ccc(Cl)cc1 [Compound 102] | 3.01 to 10 µM | < 3 µM |  |
| CN(CCN)Cc1n[nH]cc1-c1ccc(C(F)(F)F)cc1 [Compound 103] | > 10 µM | 3.01 to 12 µM |  |
| CN(CCN)Cc1n[nH]cc1-c1ccc(C2CC2)cc1 [Compound 104] | > 10 µM | 3.01 to 12 µM |  |
| CN(CCN)Cc1n[nH]cc1-c1ccc(OC(F)(F)F)cc1 [Compound 105] | 3.01 to 10 µM | < 3 µM |  |
| CN(CCN)Cc1c[nH]nc1-c1cc(F)ccc1Cl [Compound 106] | > 10 µM | > 12 µM |  |
| COc1ccc(-c2n[nH]cc2CN(C)CCN)c(F)c1 [Compound 107] | 3.01 to 10 µM | > 12 µM |  |
| Cc1ccc(-c2n[nH]cc2CN(C)CCN)c(F)c1 [Compound 108] | 3.01 to 10 µM | > 12 µM |  |
| COc1ccccc1-c1n[nH]cc1CN(C)CCN [Compound 109] | > 10 µM | > 12 µM |  |
| Cc1cc(C#N)ccc1-c1n[nH]cc1CN(C)CCN [Compound 110] | 3.01 to 10 µM | > 12 µM |  |

| SMILES | IC50 (Full-length human PRMT3) | EC30 [1, 2] | EC30 ([1]; RKO, 72 h) |
| --- | --- | --- | --- |
| CN(CCN)Cc1c[nH]nc1-c1cc(F)cc(F)c1 [Compound 111] | 3.01 to 10 µM | > 12 µM |  |
| CC(=O)c1cccc(-c2n[nH]cc2CN(C)CCN)c1 [Compound 112] | 3.01 to 10 µM | > 12 µM |  |
| CN(CCN)Cc1cnn(CC(O)CO)c1-c1ccc(F)cc1 (stereo not drawn) [Compound 113] | > 10 µM | > 12 µM |  |
| CN(CCN)Cc1c[nH]nc1-c1ccc(OC2CC2)cc1 [Compound 114] | 3.01 to 10 µM | < 3 µM |  |
| CC(O)c1ccc(-c2n[nH]cc2CN(C)CCN)cc1 (stereo not drawn) [Compound 115] | 3.01 to 10 µM | > 12 µM |  |
| CN(CCN)Cc1c[nH]nc1-c1ccc(C2CC2)cc1 [Compound 116] | 1.01 to 3 µM | < 3 µM |  |
| CN(CCN)Cc1c[nH]nc1-c1ccc(C(F)(F)F)c(Cl)c1 [Compound 117] | 1.01 to 3 µM | < 3 µM |  |
| CN(CCN)Cc1c[nH]nc1-c1ccc(Cl)c(F)c1 [Compound 118] | 1.01 to 3 µM | < 3 µM |  |
| CN(CCN)Cc1n[nH]cc1-c1ccc(OC2CC2)cc1 [Compound 119] | 3.01 to 10 µM | 3.01 to 12 µM |  |
| CN(CCN)Cc1c[nH]nc1-c1cc(F)cc(Cl)c1 [Compound 121] | 1.01 to 3 µM | < 3 µM |  |
| CN(CCN)Cc1c[nH]nc1-c1cccc(Cl)c1 [Compound 122] | 3.01 to 10 µM | 3.01 to 12 µM |  |
| CN(CCN)Cc1c[nH]nc1-c1cccc(Cl)c1F [Compound 123] | 3.01 to 10 µM | < 3 µM |  |
| CN(CCN)Cc1c[nH]nc1-c1ccc(F)c(Cl)c1 [Compound 124] | 1.01 to 3 µM | < 3 µM |  |
| COc1ccc(-c2n[nH]cc2CN(C)CCN)cc1Cl [Compound 125] | 3.01 to 10 µM |  | < 3 µM |
| Cc1ccc(-c2n[nH]cc2CN(C)CCN)cc1Cl [Compound 126] | 1.01 to 3 µM | < 3 µM |  |
| COc1cc(Cl)cc(-c2n[nH]cc2CN(C)CCN)c1 [Compound 127] | 3.01 to 10 µM | 3.01 to 12 µM |  |
| CN(CCN)Cc1cn(CC2CCOCC2)nc1-c1ccc(F)cc1 [Compound 128] | > 10 µM | > 12 µM |  |
| Cc1c(F)cccc1-c1n[nH]cc1CN(C)CCN [Compound 129] | 3.01 to 10 µM | 3.01 to 12 µM |  |
| COc1cccc(-c2n[nH]cc2CN(C)CCN)c1 [Compound 130] | 3.01 to 10 µM | 3.01 to 12 µM |  |
| Cc1cccc(-c2n[nH]cc2CN(C)CCN)c1 [Compound 131] | 3.01 to 10 µM | < 3 µM |  |

| SMILES | IC50 (Full-length human PRMT3) | EC30 [1, 2] | EC30 ([1]; RKO, 72 h) |
| --- | --- | --- | --- |
| CN(CCN)Cc1c[nH]nc1-c1ccc(Cl)cc1F [Compound 132] | 3.01 to 10 µM |  | < 3 µM |
| Cc1cc(Cl)ccc1-c1n[nH]cc1CN(C)CCN [Compound 133] | 3.01 to 10 µM | < 3 µM |  |
| COc1ccc(-c2n[nH]cc2CN(C)CCN)cc1F [Compound 134] | 3.01 to 10 µM | < 3 µM |  |
| CN(CCN)Cc1c[nH]nc1-c1ccc(C(F)(F)F)cc1Cl [Compound 135] | > 10 µM | 3.01 to 12 µM |  |
| CCNC(=O)c1ccc(-c2n[nH]cc2CN(C)CCN)cc1 [Compound 136] | > 10 µM | > 12 µM |  |
| CN(CCN)Cc1c[nH]nc1-c1cc(Cl)cc(Cl)c1 [Compound 137] | 3.01 to 10 µM | 3.01 to 12 µM |  |
| CN(CCN)Cc1n[nH]cc1-c1ccc(OC(F)F)cc1 [Compound 138] | > 10 µM | < 3 µM |  |
| CN(CCN1CCCC1)Cc1c[nH]nc1-c1ccc(C#N)cc1 [Compound 139] | > 10 µM | > 12 µM |  |
| CN(CCN)Cc1c[nH]nc1-c1ccccc1C#N [Compound 140] | 3.01 to 10 µM | > 12 µM |  |
| CN(CCN)Cc1c[nH]nc1-c1ccc(C(F)(F)F)c(F)c1 [Compound 141] | 3.01 to 10 µM | < 3 µM |  |
| COc1cc(-c2n[nH]cc2CN(C)CCN)ccc1F [Compound 142] | 3.01 to 10 µM | < 3 µM |  |
| CCN(CC)C(=O)c1ccc(-c2n[nH]cc2CN(C)CCN)cc1 [Compound 143] | 3.01 to 10 µM | > 12 µM |  |
| CC(C)Oc1ccc(-c2c[nH]nc2CN(C)CCN)cc1F [Compound 144] | > 10 µM | < 3 µM |  |
| CN(CCN)Cc1n[nH]cc1-c1ccc(C2CCOCC2)cc1 [Compound 145] | 3.01 to 10 µM | < 3 µM |  |
| COc1ccc(-c2n[nH]cc2CN(C)CCN)c(Cl)c1 [Compound 146] | 3.01 to 10 µM | 3.01 to 12 µM |  |
| CN(CCN)Cc1c[nH]nc1-c1cc(C#N)ccc1Cl [Compound 147] | > 10 µM | > 12 µM |  |
| CN(CCN)Cc1c[nH]nc1-c1ccc(C(F)(F)F)cc1F [Compound 148] | > 10 µM | 3.01 to 12 µM |  |
| CN(CCN)Cc1c[nH]nc1-c1cccc(N(C)C)c1 [Compound 149] | 3.01 to 10 µM | 3.01 to 12 µM |  |
| CN(CCN)Cc1c[nH]nc1-c1ccc2c(c1)NC(=O)CO2 [Compound 173] |  | > 12 µM |  |
